Reference: PMC12811501, “A plant-derived antimicrobial peptide with multiple mechanisms of action exhibiting antibacterial and antibiofilm activities comparable to or superior to polymyxin B” (Current Research in Microbial Sciences, 2025)
Residues, ends and D or L forms follow the SMILES beside them. No end group written: not given here.

Assays:
[1] = system: Acinetobacter baumannii (ATCC 17978); format: cell-based; settings: short derivatives; 20 mM PPB at pH 7.4
Text: (§1) The Gram-positive strains Enterococcus faecalis (ATCC 29212), Staphylococcus aureus (HNCMO112011), and Listeria monocytogenes (ATCC 19111), and the Gram-negative strains Pseudomonas aeruginosa (ATCC 27853), Escherichia coli (ATCC 8739), Salmonella enterica (ATCC 13076), Klebsiella pneumoniae (NCTC 13440), and Acinetobacter baumannii (ATCC 17978) were obtained from ATCC (United States) and NCTC (National Collection of Type Cultures – England).
(§2) Minimal bactericidal concentrations (MBC) of peptides and reference antibiotics were determined in 20 mM potassium phosphate buffer (PPB, pH 7.4) and Mueller–Hinton broth (MHB) as described by ([Jenei et al., 2020]). Briefly, bacterial cultures were grown to mid-log phase, washed, adjusted to OD₆₀₀ = 0.1 (∼10⁷ CFU/mL), added 10 μl of it into 100 μl mixture and incubated in 96-well plates with 2-fold serial dilutions of peptides or antibiotics. After incubation at 37 °C with shaking, bacterial viability was assessed by plating 5 μL aliquots on LB agar. MBC was defined as the lowest concentration yielding no colony growth. Experiments were done at least in three biological replicates.
(§3) NCR169, its oxidized form (NCR169ox), and its variant in which the four cysteines were replaced with serines (NCR169-C9,15,28,33/S) (Table 1.A) were chemically synthesized with C-terminal amidation. These peptides were tested for antimicrobial activity against a panel of ESKAPE pathogens - Enterococcus faecalis, Staphylococcus aureus, Klebsiella pneumoniae, Acinetobacter baumannii, Pseudomonas aeruginosa, E. coli - as well as Listeria monocytogenes and Salmonella enterica. Peptides were applied to 10^6 log-phase bacterial cultures in a two-fold dilution series (25 - 0.1 µM) in potassium phosphate buffer (PPB) at pH 7.4. After three hours of incubation, 5 µl of each treatment was plated on LB agar and incubated overnight at 37 °C to assess bacterial survival. Minimal bactericidal concentrations (MBCs), defined as the lowest concentration eliminating bacterial growth, are presented in Table 1B.

[2] = system: Staphylococcus aureus (HNCMO112011); format: cell-based; settings: for MBC S. a.: short derivatives, 20 mM PPB at pH 7.4
Text: as §1, §2, §3

[3] = system: Enterococcus faecalis (ATCC 29212); test: Minimal bactericidal concentration (MBC) assay; format: cell-based
Text: as §1, §2, §3

[4] = system: Listeria monocytogenes (ATCC 19111); test: Minimal bactericidal concentration (MBC) assay; format: cell-based; settings: short derivatives; 20 mM PPB at pH 7.4
Text: as §1, §2, §3

[5] = system: Salmonella enterica (ATCC 13076); test: Minimal bactericidal concentration (MBC) assay; format: cell-based; settings: short derivatives; 20 mM PPB at pH 7.4
Text: as §1, §2, §3

[6] = system: Pseudomonas aeruginosa (ATCC 27853); test: Minimal bactericidal concentration (MBC) assay; format: cell-based; settings: short derivatives; 20 mM PPB at pH 7.4
Text: as §1, §2, §3

[7] = system: Klebsiella pneumoniae (NCTC 13440); test: Minimal bactericidal concentration (MBC) assay; format: cell-based; settings: short derivatives; 20 mM PPB at pH 7.4
Text: as §1, §2, §3

[8] = system: Escherichia coli (ATCC 8739); format: cell-based; settings: ATCC 8739, 3 h
Text: as §1
as §2, with “Experiments were done at least in three biological replicates.” left out
Three biological replicates were treated at OD600 = 0.2 with a final concentration of 1.6 µM NCR169C17–38 peptide for 20 min, while the control samples were treated with the same amount of water for 20 min. […] Quality and quantity was detected using 2200 TapeStation (Agilent) and Qubit RNA BR Assay […]

[9] = format: physicochemical; settings: pH 7.4
[10] = Peptide-lipid overlay assay; format: binding; settings: 2 μM peptide, 1 h
Protocol: Membrane lipid strips (Echelon Biosciences, P-6002) were incubated for 1 h in blocking solution (3 % BSA in TBS-Tween 0.1 %) with gentle agitation followed by four 8-min washes in TBS-Tween. Then, strips were incubated with 2 μM of NCR169C17–38 in blocking solution for 1 h. Not bound peptide was washed off by four 8-min washes in TBS-Tween. The bound StrepII-tagged peptide was then detected on the strips using the same procedure described for the dot blot, except that chemiluminescence was visualized with an iBright™ FL1500 Imaging System (Invitrogen).
As shown above, NCR169C17–38 causes rapid damage to bacterial membranes. Since membrane structure is largely determined by its lipid composition, we next investigated the ability of NCR169C17–38-StrepII to bind membrane lipids in vitro using a peptide-lipid overlay assay (Supplementary Fig. 3.A). NCR169C17–38-StrepII bound to several anionic lipids, including phosphoinositides, phosphatidic acid, phosphatidylserine, and cardiolipin - a major constituent of bacterial membranes.

[11] = 25, 12.5, 6.3, 3.1 µM in PPB, overnight at room temperature or 80 °C for 20 min; StrepII detection
Protocol: For heat stability test serial dilutions of the NCR169C17–38-StrepII peptide were prepared in PPB at concentrations of 25, 12.5, 6.3, 3.1 µM, following the same protocol used in the antimicrobial assay. One set of samples was incubated overnight at 37 °C with shaking, another set was subjected to heat stress at 80 °C for 20 min, while one set was freshly prepared. Dot-blot analysis was performed by spotting 5 µl of each peptide solution onto a 0.22 µm nitrocellulose membrane (Bio-Rad). Detection of the StrepII-tagged peptide was carried out using the Precision Protein StrepTactin-HRP conjugate (Bio-Rad), following the manufacturer’s recommended protocol. Signal development was achieved using the Clarity Western ECL Substrate (Bio-Rad), with the membrane incubated for 5 min at room temperature, followed by exposure to Fuji Medical X-ray film for visualization.
Peptide dilutions (25, 12.5, 6.3, and 3.1 µM) in PPB were either incubated overnight at room temperature (RT) or heated at 80 °C for 20 min.

E. coli = test: Antimicrobial test after heat stress or storage of the peptide; format: cell-based, Escherichia coli; settings: then tested against E. coli, 3.1 µM = lowest dilution tested
Protocol: (B) NCR169C17-38-StrepII remains active against E. coli even at 3.1 µM after 20 minutes of treatment at 80 °C or incubation at room temperature for 24 hrs. Bacterial viability was assessed by plating 5 µL aliquots after treatment on LB agar. Only non-treated control cells could grow.

[12] = short derivatives, 20 mM PPB at pH 7.4

| Molecule | MBC S. a. [2] | MBC E. f. [3, 12] | MBC L. m. [4] | MBC S. e. [5] | MBC P. a. [6] | MBC K. p. [7] | other results |
| --- | --- | --- | --- | --- | --- | --- | --- |
| KCVENVCVLWYK [NCR169_27–38, shorter C-terminal fragment of NCR169C17–38] | - (lack of bactericidal activity up to 25 µM) | - (lack of bactericidal activity up to 25 µM) | - (lack of bactericidal activity up to 25 µM) | - (lack of bactericidal activity up to 25 µM) | - (lack of bactericidal activity up to 25 µM) | - (lack of bactericidal activity up to 25 µM) | MBC A. b. [1]: - (lack of bactericidal activity up to 25 µM) |
| YKSKKPLFKIWK-NH2 [NCR169_16–27] | – | – | – | – | – | – | MBC Ec [8]: 6.3 µM; MBC Sa ([2]; HNCMO112011, 3 h): 25 µM |
| EDIGHIKYCGIVDDCYKSKKPLFKIWKCVENVCVLWYK (disulfide) (disulfide (positions not given here); also: disulfide pairing not given here) [NCR169ox, oxidized form of NCR169] | – | – | – | – | – | – | MBC E. f. ([3]; PPB pH 5.8, 3 h treatment, plated on LB agar): - (lack of bactericidal activity up to 25 µM); MBC E. f. ([3]; PPB pH 7.4, 3 h treatment, 10^6 log-phase bacteria, two-fold dilutions 25-0.1 µM, plated on LB agar, * = best MBC value measured, more than two fold dilution differences in replicates): - (lack of bactericidal activity up to 25 µM); solubility / visible turbidity upon peptide addition [9]: no visible turbidity |
| CC[C@H](C)[C@H](NC(=O)[C@H](CCCCN)NC(=O)[C@H](Cc1ccccc1)NC(=O)[C@H](CC(C)C)NC(=O)[C@@H]1CCCN1C(=O)[C@H](CCCCN)NC(=O)[C@H](CCCCN)NC(=O)[C@H](CO)NC(=O)[C@@H](N)CCCCN)C(=O)N[C@@H](Cc1c[nH]c2ccccc12)C(=O)N[C@@H](CCCCN)C(=O)N[C@@H](CS)C(=O)N[C@H](C(=O)N[C@@H](CCC(=O)O)C(=O)N[C@@H](CC(N)=O)C(=O)N[C@H](C(=O)N[C@@H](CS)C(=O)N[C@H](C(=O)N[C@@H](CC(C)C)C(=O)N[C@@H](Cc1c[nH]c2ccccc12)C(=O)N[C@@H](Cc1ccc(O)cc1)C(=O)N[C@@H](CCCCN)C(=O)N[C@@H](Cc1c[nH]c2ccccc12)C(=O)N[C@@H](CO)C(=O)N[C@@H](Cc1c[nH]cn1)C(=O)N1CCC[C@H]1C(=O)N[C@@H](CCC(N)=O)C(=O)N[C@@H](Cc1ccccc1)C(=O)N[C@@H](CCC(=O)O)C(=O)N[C@@H](CCCCN)C(N)=O)C(C)C)C(C)C)C(C)C [NCR169C17–38-StrepII] (H-KSKKPLFKIWKCVENVCVLWYKWSHPQFEK-NH2; N-terminus assumed) | – | – | – | – | – | – | binding to phosphatidylglycerol (PG) on lipid strip [10]: did not bind; binding to anionic lipids on lipid strip ([10]; phosphoinositides, phosphatidic acid, phosphatidylserine, cardiolipin): bound; peptide stability by dot blot [11]: confirmed its stability; lowest concentration still bactericidal after heat stress (E. coli; peptide in PPB heated 20 minutes at 80 °C): ≤ 3.1 µM; lowest concentration still bactericidal after storage (E. coli; peptide in PPB incubated at room temperature for 24 hrs (overnight)): ≤ 3.1 µM |
| PLFKIWKCVENVCVLWYK [NCR169_21–38, shorter C-terminal fragment of NCR169C17–38] | - (lack of bactericidal activity up to 25 µM) | - (lack of bactericidal activity up to 25 µM) | - (lack of bactericidal activity up to 25 µM) | - (lack of bactericidal activity up to 25 µM) | - (lack of bactericidal activity up to 25 µM) | - (lack of bactericidal activity up to 25 µM) | – |
